Assay results reported in patent US7704969B2, “Transfection complexes” (ICH Productions Limited, priority 2001, dated 2010).
Entries after “also recorded” stand apart in the source; their conditions may differ. Bridge positions count the residues as written; N and C are the ends. Ends that are not written are not given here.

Tests used:
HAE cells [1] = test: Whole cell ELISA of phage binding to HAE cells; set-up: species or system human; conditions: phage sequences of Table 1a compared and ranked using a range of phage titres
Protocol: Following incubation of the phage with the HAE cells, the cells are washed and retained phage may then be detected by immunostaining. Cell specificity is assessed by comparing phage binding to target cells with phage binding to the wells on which the cells were plated and with phage binding to NIH 3T3 fibroblast control cells.
Binding of phage to tissue cultured HAE cells was investigated by whole cell ELISA. Approx. 8×10^4 HAE cells in […] Hanks Balanced Salts Solution (HBSS) were added to each well of a 96 well plate and incubated at 37° C. until cells had adhered. The cells were washed gently in HBSS before blocking by the addition of 0.5% BSA in HBSS for 30 mins. […] Bound phage were detected by the addition of horseradish peroxidase (HRP)-conjugated anti-M13 antibody diluted 1:5000 in blocking buffer for 1 hour, before washing three times in PBS and developing the ELISA with 2,2′-azino-bis(3-ethylbenzthiazoline 6-sulfonic acid) (ABTS) substrate solution and reading the absorbance on a plate-reading spectrophotometer at 405 nm. […]
Approx. […] Bound phage were detected by the addition of HRP-conjugated anti-M13 antibody diluted 1:5000 in blocking buffer for 1 hour, before washing three times in PBS, developing the ELISA with ABTS solution, and reading the absorbance at 405 nm.

HAE cells [2] = test: Luciferase reporter gene transfection of HAE cells with lipid/peptide/DNA vector complexes; type: cell-based, human
Description: Transfection complexes were made by mixing the components in the order 1) lipid, then 2) peptide and, finally 3) DNA, followed by dilution. The vector complex suspension was applied to HAE cells and control cells. Vector complexes incorporating peptide Q ([K]16-GACLQHKSMPCG [SEQ. ID. NO.:12]) and vector complexes incorporating peptide P ([K]16-GACLPHKSMPCG [SEQ. ID. NO.:13]) were synthesised and compared with vector complexes incorporating peptide S ([K]16-GACYKHPGFLCG] [SEQ. ID. NO.:14]) which is a control peptide having the same amino acid constituents as peptide P but in a randomised order (the “scrambled control”), Peptide 12 ([K]16—XSXGACRRETAWACG [SEQ. ID. NO.:15]), a targeting peptide known to bind to alpha 5 beta 1 integrins and Peptide K ([K]16) a DNA binding moiety with no targeting ligand attached.
Transfections of HAE cells and 3T3 cells were performed in 96 well plates containing 20,000 cells plated 24 hours earlier. In the transfection vector complex, peptide to DNA charge ratios (+/−) were used at 1.5:1, 3:1 and 7:1. At physiological pH, DNA carries negative charge and the polycationic-nucleic acid binding component carries positive charge. The “charge ratio” is accordingly the ratio of the charges of the two components in the complex. The lipid component was maintained at a constant proportion, by weight, relative to DNA of 0.75:1.
Control peptide (S), consisted of the same amino acid constituents as the targeting peptide P but in a randomised order, was synthesised for incorporation into lipopolyplex formulations. Transfections of HAE and 3T3 cells were performed in 96 well plated containing 20,000 cells plated 24 h earlier. In the transfection complex, peptide to DNA charge ratios (+/−) were used at 1.5:1, 3:1 and 7:1. The lipid component was maintained at a constant proportion, by weight, relative to DNA of 0.75:1. Prior to making transfection complexes the lipid component was diluted to a concentration of 15 μg per ml, the peptide was prepared at 0.1 mg/ml and the DNA was at 20 μg per ml. All dilutions were performed with OptiMEM reduced serum tissue culture medium (Life Technologies). Transfection complexes were made by mixing of components in the order 1) lipid then 2) peptide and finally 3) DNA, then diluted with OptiMEM to a concentration relative to the DNA component of 0.25 μg DNA per 200 μl which volume was added to each well. Each group was performed in replicates of six. The vector complex suspension was then applied to cells within 5 minutes of preparation. Transfection incubations were performed at 37° C. for 4 h. Luciferase reporter gene assays in cell free extracts were performed after 48 h incubation using a kit from Promega according to the manufacturer's protocol. […]

3T3 cells = test: Luciferase reporter gene transfection of 3T3 cells; type: cell-based, mouse; conditions: FIG. 8, best peptide:DNA charge ratio, expression after 24 hours

## LPHKSMP (not fully specified (N-terminus, C-terminus)) [basis of peptide P]
HAE cells [1]
  binding affinity to HAE cells (binding strength by ELISA): highest binding affinity

## [K]16-GACLPHKSMPCG (KKKKKKKKKKKKKKKKGACLPHKSMPCG; disulfide 19-27 (inferred)) [peptide P]
HAE cells [2]; peptide P at 7:1 charge ratio vs peptide 12 at 3:1 charge ratio, luciferase
  transfection efficiency relative to peptide 12 (next best peptide): five-fold higher
HAE cells [2]; transfection assay, FIG. 3
  transfection performance relative to peptide Q: significantly better
HAE cells [2]; vector complexes, luciferase
  transfection efficiency relative to peptide K (K16, no targeting ligand): almost nine-fold higher; also recorded: almost nine-fold more efficient

## [K]16-GACLQHKSMPCG [peptide Q]
3T3 cells
  transfection efficiency relative to peptide 6: approximately 1.5 times

## [K]16-GACSERSMNFCG (KKKKKKKKKKKKKKKKGACSERSMNFCG; disulfide 19-27 (inferred))
3T3 cells
  transfection efficiency relative to peptide 6: approximately 1.5 times

## [K]16-GACYKHPGFLCG (KKKKKKKKKKKKKKKKGACYKHPGFLCG; N-terminal K16 oligolysine; Targeting peptide, see description) [peptide S, reference compound]
HAE cells [2]; in transfection complexes
  transfection performance of peptide S relative to peptide K16: less than a tenth as good
